In article PMC11245370, “3-Position Biaryl Endochin-like Quinolones with Enhanced Antimalarial Performance” (ACS Infectious Diseases, 2024):
Where “and” joins values, the source holds several entries; their conditions need not be identical. Equal values may be shown once.

Assays:
[1] = target: human liver cytochrome bc1 complex (Homo sapiens, UniProt P00156); test: Human cytochrome bc1 assay (liver mitochondrial preparation)
Procedure: All use of human tissue was approved by the OHSU IRB. Approximately 10 g of human liver tissue was obtained intraoperatively and placed in ice-cold PBS containing 5 mM glucose. [Note: The specimen was obtained from grossly normal tissue that was resected around the margins of a tumor as part of the standard surgical treatment for hepatic tumors.] Liver was homogenized using a razor blade followed by a Dounce homogenizer. HALT Protease Inhibitor Cocktail (Pierce) was added per the manufacturer’s instructions. A crude mitochondrial fraction was prepared by differential centrifugation as described in Renault et al.[35] The final pellet was resuspended in storage buffer (50 mM tricine, 100 mM KCl, 2 mM NaN, 2.0% dodecyl-beta-D-maltoside, 30% glycerol, pH 8.0). Aliquots of this mitochondrial preparation were frozen in a dry ice–ethanol bath and stored at −80 °C until use.
Two microliters of mitochondrial preparation was resuspended in the assay buffer (50 mM tricine, 100 mM KCl, 2 mM NaN3, 0.1% dodecyl-beta-D-maltoside). […] Antimycin A was dissolved in ethanol as a 1 mM stock. Decylubiquinone was reduced to decylubiquinol with an excess of NaBH4, and the excess NaBH4 was subsequently quenched with hydrochloric acid. […] The rate of the nonenzymatic reaction of cytochrome c and decylubiquinol was measured separately in the absence of mitochondrial preparation and found to be insignificant. […]

[2] = tested on: P. yoelii blood-stage infection; conditions: mice; for blood stage in vivo efficacy, 4 day Peters test results, NRD (nonrecrudescence dose): oral gavage days 1-4, followed to day 30
Procedure: (§1) On day 5, a drop of blood was taken from the tail, and a blood smear was prepared, fixed with methanol, and stained with Giemsa. The operator then examined the stained smear microscopically to determine percent parasitemia. […] In this model, animals were inoculated exactly as for the 4 day test on day 0; however, drug was administered only on day 1, whereas smears were made on day 5 and again weekly thereafter for animals that remained aparasitemic. Animals that remained aparasitemic on day 30 were scored as cures.
The P. yoelii 4 day test monitors suppression of patent infection in female CF1 mice. The test began with the inoculation (iv) of parasitized erythrocytes (3.5 × 10^4P. yoelli) (from a donor animal) on the first day of the experiment (D0). […] Initially, the 3-biaryl-ELQs were tested at doses of 0.0025, 0.005, 0.01, 0.03, 0.1, 0.3, 1.0, and 10 mg/kg/day, including a vehicle-only (PEG400) control. After completion of drug treatment, a blood sample was collected (by pricking the tail vein) for determination of parasite burden beginning on the day after the final dose (D5). Percent parasitemia was assessed by direct microscopic analysis of Giemsa-stained blood smears. […] Animals with observable parasitemia following the experiment were euthanized; animals cleared of parasites from the bloodstream were observed daily with assessment of parasitemia performed weekly until day 30, at which point the animals were scored as cured of infection. […] Nonlinear regression analysis was used for objective determination of ED50’s and ED90’s from the accumulated data as well as the nonrecrudescence dose (NRD). The 4 day test protocol was reviewed and approved by the local IACUC board at the Portland VA Medical Center. Experiments were performed with four mice per group to ensure statistical accuracy.

[3] = tested on: P. yoelii blood-stage infection; test: Single-dose cure of blood-stage murine malaria; type: in vivo, Plasmodium yoelii; conditions: for blood stage in vivo efficacy, single dose cure: lowest single oral dose curing all four mice, day 30
Procedure: as §1
The effectiveness of selected 3-biaryl ELQs and prodrugs was assessed vs the blood-stage infection for single-dose cures. Mice were infected iv with 3.5 × 10^4P. yoelii infected RBCs as described for the 4 day test above. Drug administration occurred on the day after inoculation (day 1). Test agents were dissolved in PEG-400 and administered ig once. On the fifth day, blood films were prepared, and % parasitemia was assessed. Animals remaining parasite-free for 30 days after drug administration were considered cured. The initial dosing range was 0.25, 0.5, 1, 3, and 10 mg/kg, including a control. Experiments were performed with four mice per group to ensure statistical accuracy. The reported parameter for these studies is the lowest single dose that provides a cure to all four animals in the group.

[4] = tested on: P. yoelii sporozoites (liver stage); test: Causal prophylaxis, sporozoite challenge in mice; conditions: 1.0 mg/kg single oral dose 1 h after 10,000 P. yoelii sporozoites iv; followed 30 days
Procedure: For this study, mice were inoculated with 10,000 P. yoelii sporozoites via tail vein injections, and drug was administered by gavage an hour later and only once. We monitored for the presence of blood-stage parasites as a measure of liver-stage infection.
Mice were inoculated with 10,000 sporozoites via tail vein injection of CF1 mice treated with or without drug (dissolved in PEG400) 1 h after inoculation. […] Additional monitoring for blood-stage infection was continued for a 30 day period to confirm true causal prophylaxis against P. yoelii challenge. […] Testing involved the use of four animals per group for statistical accuracy. […] A minimum of 5000 red blood cells were examined to establish blood-stage infection. Blood smears were fixed with methanol, stained with Giemsa, and viewed under oil immersion at 1000× magnification under standard light microscopy.

[5] = oral gavage days 1-4, parasitemia day 5, prodrugs dosed on molar equivalency to parent

| SMILES | EC50 [1] [µM] | blood stage in vivo efficacy, 4 day Peters test results, NRD (nonrecrudescence dose) [2] [mg/kg/day] | blood stage in vivo efficacy, single dose cure [3] [mg/kg/day] | blood stage in vivo efficacy, 4 day Peters test results, ED50 [2, 5] [mg/kg/day] | blood stage in vivo efficacy, 4 day Peters test results, ED90 [2, 5] [mg/kg/day] | lowest fully protective single dose cure ([3]; single oral dose day 1, aparasitemic day 30, four mice, parent-drug equivalent) [mg/kg] | liver stage in vivo, # mice protected/total [4] |
| --- | --- | --- | --- | --- | --- | --- | --- |
| CCCCCC[C@H]1C(=O)O[C@H](C)[C@H](NC(=O)c2cccc(NC=O)c2O)C(=O)O[C@@H](C)[C@@H]1OC(=O)CC(C)C [Antimycin A, reference compound] | < 0.156 | – | – | – | – | – | – |
| CCN(CC)CCCC(C)Nc1ccnc2cc(Cl)ccc12 (stereo not drawn) [CQ] | – | >64 | >64 | – | – | – | – |
| CCOC(=O)OCOc1c(-c2ccc(Oc3ccc(OC(F)(F)F)cc3)cc2)c(C)nc2cc(OC)c(Cl)cc12 [ELQ-331] | – | 1.0 | 3 | 0.02 | 0.05 | 3 | completely protective and 4/4 |
